Data set [1] in a line: Experiment 2: uptake of [14C]-vitamin D3 tracer into serum and conversion to [14C]-25(OH)D3. Format: in vivo, Male Wistar rats. As to conditions: tracer added to last day's dose. The method, then: One dose of [carbon-14]-labelled vitamin D3 was given at the time of the last of 14 daily doses of nonradioactive vitamin D3. The graphs show the uptake and metabolism of one [^14 C]-vitamin D3 dose during the course of gastric or dermal supplementation with vitamin D3. The tracer was given in addition to the usual, 8 μg/day vitamin D3 dose, and by the same route. Radioactivity in serum was isolated by chromatography to measure that which elutes as vitamin D3, or as […], Each point is the mean of results from six rats;
Uptake of radioactive vitamin D3 from skin or gut during the longer term treatment with vitamin D3 at 20 nmol/day.
The previous experiment 1 involved only one acute dose of a minute, tracer amount of vitamin D3. It remained possible that dermal application could not deliver a larger, more nutritionally relevant amount of vitamin D3. This experiment 2 looked at what happens when vitamin D3 is given during the course of daily treatment with a moderate amount of vitamin D3.
(§1) After 30 days, the rats were divided into three groups of 6: one group continued with no supplement, one group was given daily vitamin D3 supplement, 8 μg/day either by gastric tube, the third received the supplement by application to the skin in 50 μL ethanol. Vitamin D3 was given for 3 wk. The day before the rats were killed, the vitamin D3 dose was supplemented with [^14 C]-labelled vitamin D3, 915,000 cpm per rat. Blood was obtained from the tail of each rat at 3 h, 9 h, and by heart puncture when the rats were anesthetized for killing, 24 h after giving the tracer. The blood was extracted and chromatographed to distinguish [^14 C]-vitamin D3 from the [^14 C]-25(OH)D3generated from it. Radioactivity was also measured in the liver, kidney, and adipose tissue. Serum nonradioactive 25(OH)D3 was also measured.

The nature of data set [2]: Experiment 2: serum 25(OH)D3 after 3 wk vitamin D3 supplement. Format: in vivo, Male Wistar rats. As to conditions: 8 μg/day, relative to marginal-diet group. The procedure: as §1
Biochemical measurements. 1,25(OH)2 D3 in serum was measured by calf-thymus receptor-binding assay after initial purification of 1,25(OH)2 D3 with C18-OH cartridges (5). For the serum volumes that were minimal, serum was measured out in 50 μL increments, and the final result was adjusted for the volume of sample analyzed. […] The material eluting as 1,25(OH)2 D3 was evaporated and redissolved in acetonitrile: water for further purification with C18-OH cartridges and quantitation by thymus receptor assay, as described for serum. […]

For data set [3] the following is noted: generated by ultraviolet exposure, bound to DBP, experimental subjects; cited from earlier work.

As for `C=C1CC[C@H](O)C/C1=C/C=C1\CCC[C@]2(C)[C@@H]([C@H](C)CCCC(C)C)CC[C@@H]12` [vitamin D3], the “rate of uptake into circulation, dermal vs gastric” value in data set [1] is on record as “more slowly when given via the dermal route”. Further, the “increase in 25(OH)D3 with dermal relative to gastric supplementation” value in data set [2] turned out to be 59%. Moreover, in data set [3], the persistence in circulation entry was “circulate unchanged for a prolonged time”.

The values are drawn from patent US5532229A, “Topical administration of vitamin D to mammals” (priority 1994, dated 1996).
